Reference: patent US11578087B2, “Oxaborole esters and uses thereof” (priority 2016, dated 2023)
pIC50: −log10 of the molar value.

Assays:
[1] = system: IL3000 T. congolense (drug sensitive) strain; assay: In vitro Alamar Blue 72 h drug sensitivity assay for T. congolense; assay type: cell-based, Trypanosoma congolense; details: Trypanosoma congolense, 72 h, bloodstream form, 69 h + 3 h Resazurin, 34° C., read-out: IC50: I Org. Growth T. congolense 3 d
Summary of the method: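 Bloodstream-form trypanosomes in HMI medium with 20% bovine serum were exposed to compounds for 69 h at 34° C, 5% CO2, then resazurin for another 3 h. Fluorescence read at ex 536/em 588 nm; IC50 from 11-point sigmoidal dose-response curves, at least three independent runs.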

[2] = system: STIB719/ILRAD560 T. vivax (drug sensitive) strain; assay: Ex vivo Alamar Blue 48 h drug sensitivity assay for T. vivax; assay type: cell-based; details: Trypanosoma vivax, ex vivo bloodstream form from mouse, 45 hrs + 3 hrs Resazurin, 37° C., read-out: IC50: I Hypoxanthine Incorporation T. vivax 2 d
[3] = system: T. cruzi amastigote (Td Tomato-modified) in Vero cells; assay: In vitro IC50 measurement of T. cruzi amastigote killing using Td Tomato-modified T. cruzi; assay type: cell-based; details: Trypanosoma cruzi, 72 h, fluorescence, read-out: IC50: I Org. amastigote Growth T. cruzi 3 d
Summary of the method: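 Vero cells infected with Td Tomato-expressing T. cruzi, treated with compound at 5 uM to 5 nM final, incubated 72 h at 37 °C. Fluorescence (Ex 544/Em 612 nm) read at Day 0 and Day 3, Day 0 subtracted; IC50 and IC90 by nonlinear regression.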

| SMILES | pIC50 [1] | pIC50 [2] | pIC50 [3] |
| --- | --- | --- | --- |
| C[C@H](NC(=O)c1ccc2c(c1)B(O)OC2)C(=O)O[C@@H](C)c1ccccc1 [Example 6-022, (S)-1-phenylethyl (1-hydroxy-1,3-dihydrobenzo[c][1,2]oxaborole-6-carbonyl)-L-alaninate] | 5.30 to 8.00 | 5.70 to 7.30 |  |
| COC(=O)[C@H](CCc1ccccc1)NC(=O)c1ccc2c(c1)B(O)OC2 [Example 6-027, Methyl (S)-2-(1-hydroxy-1,3-dihydrobenzo[c][1,2]oxaborole-6-carboxamido)-4-phenylbutanoate] | 5.30 to 8.00 | 5.70 to 7.30 |  |
| Cc1c(C(=O)N[C@H](C(=O)OCc2cccc(F)c2)C(C)C)ccc2c1B(O)OC2 [Example 6-042, 3-Fluorobenzyl (1-hydroxy-7-methyl-1,3-dihydrobenzo[c][1,2]oxaborole-6-carbonyl)-L-valinate] | 8.00 to 9.29 | > 9.30 |  |
| C[C@@H](OC(=O)[C@H](Cc1ccccc1)NC(=O)c1ccc2c(c1)B(O)OC2)c1ccccc1 [Example 6-021, (R)-1-phenylethyl (1-hydroxy-1,3-dihydrobenzo[c][1,2]oxaborole-6-carbonyl)-L-phenylalaninate] | 8.00 to 9.29 | 7.30 to 9.29 |  |
| Cc1c(C(=O)N[C@H](C(=O)OCc2cc(F)cc(F)c2)C(C)C)ccc2c1B(O)OC2 [Example 6-048, 3,5-Difluorobenzyl (1-hydroxy-7-methyl-1,3-dihydrobenzo[c][1,2]oxaborole-6-carbonyl)-L-valinate] | > 9.30 | > 9.30 |  |
| CC(C)C[C@H](NC(=O)c1ccc2c(c1)B(O)OC2)C(=O)OCc1ccccc1 [Example 6-006, Benzyl (1-hydroxy-1,3-dihydrobenzo[c][1,2]oxaborole-6-carbonyl)-L-leucinate] | 8.00 to 9.29 | 7.30 to 9.29 |  |
| Cc1c(C(=O)N[C@H](C(=O)OCc2cnc(C(F)(F)F)nc2)C(C)C)ccc2c1B(O)OC2 [Example 6-159, (2-(Trifluoromethyl)pyrimidin-5-yl)methyl (1-hydroxy-7-methyl-1,3-dihydrobenzo[c][1,2]oxaborole-6-carbonyl)-L-valinate] | > 9.30 | > 9.30 |  |
| Cc1c(C(=O)N[C@H](C(=O)OCc2ccc3c(c2)C(=O)CS3(=O)=O)C(C)C)ccc2c1B(O)OC2 [Example 6-104, (1,1-Dioxido-3-oxo-2,3-dihydrobenzo[b]thiophen-5-yl)methyl (1-hydroxy-7-methyl-1,3-dihydrobenzo[c][1,2]oxaborole-6-carbonyl)-L-valinate] | 5.30 to 8.00 | 7.30 to 9.29 |  |
| COC(=O)[C@@H](NC(=O)c1ccc2c(c1C)B(O)OC2)[C@@H](C)OCc1ccccc1 [Example 6-078, Methyl O-benzyl-N-(1-hydroxy-7-methyl-1,3-dihydrobenzo[c][1,2]oxaborole-6-carbonyl)-L-threoninate] | 5.30 to 8.00 | 7.30 to 9.29 |  |
| CCc1c(C(=O)N[C@H](C(=O)OCc2ccc(F)cc2)C(C)C)ccc2c1B(O)OC2 [Example 6-052, 4-Fluorobenzyl (7-ethyl-1-hydroxy-1,3-dihydrobenzo[c][1,2]oxaborole-6-carbonyl)-L-valinate] | > 9.30 | > 9.30 |  |
| CC(C)[C@H](NC(=O)c1ccc2c(c1C1CC1)B(O)OC2)C(=O)OCc1ccc(F)cc1 [Example 6-057, 4-Fluorobenzyl (7-cyclopropyl-1-hydroxy-1,3-dihydrobenzo[c][1,2]oxaborole-6-carbonyl)-L-valinate] | 8.00 to 9.29 | > 9.30 |  |
| C[C@H](OC(=O)[C@H](Cc1ccccc1)NC(=O)c1ccc2c(c1)B(O)OC2)c1ccccc1 [Example 6-024, (S)-1-phenylethyl (1-hydroxy-1,3-dihydrobenzo[c][1,2]oxaborole-6-carbonyl)-L-phenylalaninate] | 8.00 to 9.29 | 5.70 to 7.30 |  |
| CC(C)[C@H](NC(=O)c1ccc2c(c1C(F)(F)F)B(O)OC2)C(=O)OCc1ccc(F)cc1 [Example 6-070, 4-Fluorobenzyl (1-hydroxy-7-(trifluoromethyl)-1,3-dihydrobenzo[c][1,2]oxaborole-6-carbonyl)-L-valinate] | 5.30 to 8.00 | 5.70 to 7.30 |  |
| CC(C)[C@H](NC(=O)c1ccc2c(c1)B(O)OC2)C(=O)OCc1ccc(F)cc1F [Example 6-031, 2,4-Difluorobenzyl (1-hydroxy-1,3-dihydrobenzo[c][1,2]oxaborole-6-carbonyl)-L-valinate] | 8.00 to 9.29 | 7.30 to 9.29 |  |
| Cc1c(C(=O)N[C@H](C(=O)OCc2ccc(F)cc2F)C(C)C)ccc2c1B(O)OC2 [Example 6-039, 2,4-Difluorobenzyl (1-hydroxy-7-methyl-1,3-dihydrobenzo[c][1,2]oxaborole-6-carbonyl)-L-valinate] | 8.00 to 9.29 | > 9.30 |  |
| C[C@H](NC(=O)c1ccc2c(c1)B(O)OC2)C(=O)O[C@H](C)c1ccccc1 [Example 6-019, (R)-1-Phenylethyl (1-hydroxy-1,3-dihydrobenzo[c][1,2]oxaborole-6-carbonyl)-L-alaninate] | 8.00 to 9.29 | 5.70 to 7.30 |  |
| CCCc1c(C(=O)N[C@H](C(=O)OCc2ccc(F)cc2)C(C)C)ccc2c1B(O)OC2 [Example 6-064, 4-fluorobenzyl (1-hydroxy-7-propyl-1,3-dihydrobenzo[c][1,2]oxaborole-6-carbonyl)-L-valinate] | 8.00 to 9.29 | 7.30 to 9.29 |  |
| CC(C)[C@H](NC(=O)c1ccc2c(c1)B(O)OC2(C)C)C(=O)OCc1ccccc1 [Example 6-032, Benzyl (1-hydroxy-3,3-dimethyl-1,3-dihydrobenzo[c][1,2]oxaborole-6-carbonyl)-L-valinate] | 5.30 to 8.00 | < 5.70 |  |
| Cc1c(C(=O)N[C@H](C(=O)OCc2ccc(OCCCN3CCCC3)c(F)c2)C(C)C)ccc2c1B(O)OC2 [Example 6-246, 3-Fluoro-4-(3-(pyrrolidin-1-yl)propoxy)benzyl (1-hydroxy-7-methyl-1,3-dihydrobenzo[c][1,2]oxaborole-6-carbonyl)-L-valinate] | 8.00 to 9.29 | > 9.30 |  |
| Cc1c(C(=O)N[C@H](C(=O)OCc2ccc(C#N)cn2)C(C)C)ccc2c1B(O)OC2 [Example 6-200, (5-cyanopyridin-2-yl)methyl (1-hydroxy-7-methyl-1,3-dihydrobenzo[c][1,2]oxaborole-6-carbonyl)-L-valinate] | > 9.30 |  | ≥ 7.70 |
| COCN(COC)S(=O)(=O)c1ccc(COC(=O)[C@@H](NC(=O)c2ccc3c(c2C)B(O)OC3)C(C)C)cc1 [Example 6-109, 4-(N,N-bis(methoxymethyl)sulfamoyl)benzyl (1-hydroxy-7-methyl-1,3-dihydrobenzo[c][1,2]oxaborole-6-carbonyl)-L-valinate] | 8.00 to 9.29 |  | 6.00 to 7.68 |
| Cc1c(C(=O)N[C@H](C(=O)OC[C@@H](O)CO)C(C)C)ccc2c1B(O)OC2 [Example 6-148, (S)-2,3-dihydroxypropyl (1-hydroxy-7-methyl-1,3-dihydrobenzo[c][1,2]oxaborole-6-carbonyl)-L-valinate] | 5.30 to 8.00 |  | ≤ 6.00 |
| Cc1c(C(=O)N[C@H](C(=O)OCC(CO)CO)C(C)C)ccc2c1B(O)OC2 [Example 6-149, 3-hydroxy-2-(hydroxymethyl)propyl (1-hydroxy-7-methyl-1,3-dihydrobenzo[c][1,2]oxaborole-6-carbonyl)-L-valinate] | 5.30 to 8.00 |  | ≤ 6.00 |
| Cc1c(C(=O)N[C@H](C(=O)OCc2ccccc2)C(C)C)ccc2c1B(O)OC2 [Example 6-038, Benzyl (1-hydroxy-7-methyl-1,3-dihydrobenzo[c][1,2]oxaborole-6-carbonyl)-L-valinate] | > 9.30 |  | ≥ 7.70 |
| Cc1c(C(=O)N[C@H](C(=O)OCc2cncc(N3CCN(C)CC3)n2)C(C)C)ccc2c1B(O)OC2 [Example 6-204, (6-(4-methylpiperazin-1-yl)pyrazin-2-yl)methyl (1-hydroxy-7-methyl-1,3-dihydrobenzo[c][1,2]oxaborole-6-carbonyl)-L-valinate] | > 9.30 |  | ≥ 7.70 |
| Cc1c(C(=O)N[C@H](C(=O)OC(C)(C)C)C(C)C)ccc2c1B(O)OC2 [Example 6-188, Tert-butyl (1-hydroxy-7-methyl-1,3-dihydrobenzo[c][1,2]oxaborole-6-carbonyl)-L-valinate] | 5.30 to 8.00 |  | ≤ 6.00 |
| Cc1c(C(=O)N[C@H](C(=O)OCc2ccc(CN3CCN(C)CC3)cc2)C(C)C)ccc2c1B(O)OC2 [Example 6-111, 4-((4-Methylpiperazin-1-yl)methyl)benzyl (1-hydroxy-7-methyl-1,3-dihydrobenzo[c][1,2]oxaborole-6-carbonyl)-L-valinate] | 8.00 to 9.29 |  | ≥ 7.70 |
| Cc1c(C(=O)N[C@H](C(=O)OCCc2ccc(F)cc2)C(C)C)ccc2c1B(O)OC2 [Example 6-121, 4-Fluorophenethyl (1-hydroxy-7-methyl-1,3-dihydrobenzo[c][1,2]oxaborole-6-carbonyl)-L-valinate] | > 9.30 |  | ≥ 7.70 |
| CC(C)[C@H](NC(=O)c1ccc2c(c1)B(O)OC2)C(=O)O[C@H](C)c1ccccc1 [Example 6-020, (R)-1-Phenylethyl (1-hydroxy-1,3-dihydrobenzo[c][1,2]oxaborole-6-carbonyl)-L-valinate] | 5.30 to 8.00 |  | ≤ 6.00 |
| Cc1c(C(=O)NC2(C(=O)OCc3ccc(F)cc3)CCC2)ccc2c1B(O)OC2 [Example 6-066, 4-Fluorobenzyl 1-(1-hydroxy-7-methyl-1,3-dihydrobenzo[c][1,2]oxaborole-6-carboxamido)cyclobutane-1-carboxylate] | > 9.30 |  | ≥ 7.70 |
